The supplement of paper PMC10307832

Experiments:
Test in all cases: relative viability (nuclei count vs DMSO), 5 days (fraction); higher = more cells survive
LCLC-97TM1 = tested on: LCLC-97TM1
Procedure, shortened: (§1)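 Five library-drug doses in √10 steps were combined with a fixed anchor-drug dose, or a single drug was given alone, by pin tool to lung cancer cell lines in 1536-well plates the day after seeding. Nuclei were stained and counted after 5 days. Relative viability is the nuclei count in treated wells over that in vehicle wells, taken as the median of duplicate plates.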

NCI-H1650 = tested on: NCI-H1650
Procedure, shortened: as §1

PC-3 [JPC-3] = tested on: PC-3 [JPC-3]
Procedure, shortened: as §1

NCI-H1734 = tested on: NCI-H1734
Procedure, shortened: as §1

NCI-H1355 = tested on: NCI-H1355
Procedure, shortened: as §1

NCI-H1975 = tested on: NCI-H1975
Procedure, shortened: as §1

H3255 = tested on: H3255
Procedure, shortened: as §1

HCC-15 = tested on: HCC-15
Procedure, shortened: as §1

LK-2 = tested on: LK-2
Procedure, shortened: as §1

NCI-H322M = tested on: NCI-H322M
Procedure, shortened: as §1

NCI-H520 = tested on: NCI-H520
Procedure, shortened: as §1

RERF-LC-KJ = tested on: RERF-LC-KJ
Procedure, shortened: as §1

NCI-H2405 = tested on: NCI-H2405
Procedure, shortened: as §1

NCI-H2228 = tested on: NCI-H2228
Procedure, shortened: as §1

EKVX = tested on: EKVX
Procedure, shortened: as §1

CAL-12T = tested on: CAL-12T
Procedure, shortened: as §1

PC-14 = tested on: PC-14
Procedure, shortened: as §1

NCI-H1755 = tested on: NCI-H1755
Procedure, shortened: as §1

NCI-H1563 = tested on: NCI-H1563
Procedure, shortened: as §1

NCI-H661 = tested on: NCI-H661
Procedure, shortened: as §1

CC(=O)O[C@@]12CO[C@@H]1C[C@H](O)[C@@]1(C)C(=O)[C@H](O)C3=C(C)[C@@H](OC(=O)[C@H](O)[C@@H](NC(=O)OC(C)(C)C)c4ccccc4)C[C@@](O)([C@@H](OC(=O)c4ccccc4)[C@H]21)C3(C)C [Docetaxel] + CS(=O)(=O)CCNCc1ccc(-c2ccc3ncnc(Nc4ccc(OCc5cccc(F)c5)c(Cl)c4)c3c2)o1 [Lapatinib] (partner 2 µM)
relative viability (LCLC-97TM1; first compound 0.000632 µM): 0.865
relative viability (LCLC-97TM1; first compound 0.002 µM): 0.155
relative viability (LCLC-97TM1; first compound 0.006325 µM): 0.175
relative viability (LCLC-97TM1; first compound 0.02 µM): 0.083
relative viability (NCI-H1650; first compound 0.0002 µM): 0.721
relative viability (NCI-H1650; first compound 0.000632 µM): 0.322
relative viability (NCI-H1650; first compound 0.006325 µM): 0.153
relative viability (NCI-H1650; first compound 0.02 µM): 0.152
relative viability (PC-3 [JPC-3]; first compound 0.0002 µM): 0.44
relative viability (PC-3 [JPC-3]; first compound 0.000632 µM): 0.476
relative viability (PC-3 [JPC-3]; first compound 0.002 µM): 0.385
relative viability (PC-3 [JPC-3]; first compound 0.006325 µM): 0.295
relative viability (PC-3 [JPC-3]; first compound 0.02 µM): 0.197
relative viability (NCI-H1734; first compound 0.0002 µM): 0.986
relative viability (NCI-H1734; first compound 0.000632 µM): 0.549
relative viability (NCI-H1734; first compound 0.002 µM): 0.429
relative viability (NCI-H1734; first compound 0.006325 µM): 0.322
relative viability (NCI-H1734; first compound 0.02 µM): 0.221
relative viability (NCI-H1355; first compound 0.0002 µM): 0.933
relative viability (NCI-H1355; first compound 0.000632 µM): 0.975
relative viability (NCI-H1355; first compound 0.002 µM): 0.446
relative viability (NCI-H1355; first compound 0.006325 µM): 0.289
relative viability (NCI-H1355; first compound 0.02 µM): 0.21
relative viability (NCI-H1975; first compound 0.0002 µM): 0.884
relative viability (NCI-H1975; first compound 0.000632 µM): 0.449
relative viability (NCI-H1975; first compound 0.002 µM): 0.268
relative viability (NCI-H1975; first compound 0.006325 µM): 0.175
relative viability (NCI-H1975; first compound 0.02 µM): 0.142
relative viability (H3255; first compound 0.0002 µM): 0.227
relative viability (H3255; first compound 0.002 µM): 0.223
relative viability (H3255; first compound 0.006325 µM): 0.19
relative viability (H3255; first compound 0.02 µM): 0.175
relative viability (HCC-15; first compound 0.0002 µM): 0.681
relative viability (HCC-15; first compound 0.000632 µM): 0.372
relative viability (HCC-15; first compound 0.002 µM): 0.208
relative viability (HCC-15; first compound 0.006325 µM): 0.195
relative viability (HCC-15; first compound 0.02 µM): 0.137
relative viability (LK-2; first compound 0.0002 µM): 0.843
relative viability (LK-2; first compound 0.000632 µM): 0.662
relative viability (LK-2; first compound 0.002 µM): 0.244
relative viability (LK-2; first compound 0.006325 µM): 0.248
relative viability (LK-2; first compound 0.02 µM): 0.148
relative viability (NCI-H322M; first compound 0.0002 µM): 0.511
relative viability (NCI-H322M; first compound 0.000632 µM): 0.593
relative viability (NCI-H322M; first compound 0.002 µM): 0.497
relative viability (NCI-H322M; first compound 0.006325 µM): 0.46
relative viability (NCI-H322M; first compound 0.02 µM): 0.293
relative viability (NCI-H520; first compound 0.0002 µM): 0.856
relative viability (NCI-H520; first compound 0.000632 µM): 0.684
relative viability (NCI-H520; first compound 0.002 µM): 0.246
relative viability (NCI-H520; first compound 0.006325 µM): 0.162
relative viability (NCI-H520; first compound 0.02 µM): 0.12
relative viability (RERF-LC-KJ; first compound 0.0002 µM): 0.808
relative viability (RERF-LC-KJ; first compound 0.000632 µM): 0.841
relative viability (RERF-LC-KJ; first compound 0.002 µM): 0.498
relative viability (RERF-LC-KJ; first compound 0.006325 µM): 0.177
relative viability (RERF-LC-KJ; first compound 0.02 µM): 0.198
relative viability (NCI-H2405; first compound 0.0002 µM): 1.03
relative viability (NCI-H2405; first compound 0.000632 µM): 0.623
relative viability (NCI-H2405; first compound 0.002 µM): 0.557
relative viability (NCI-H2405; first compound 0.006325 µM): 0.488
relative viability (NCI-H2405; first compound 0.02 µM): 0.345
relative viability (NCI-H2228; first compound 0.0002 µM): 0.641
relative viability (NCI-H2228; first compound 0.000632 µM): 0.184
relative viability (NCI-H2228; first compound 0.002 µM): 0.255
relative viability (NCI-H2228; first compound 0.006325 µM): 0.267
relative viability (NCI-H2228; first compound 0.02 µM): 0.16
relative viability (EKVX; first compound 0.0002 µM): 0.212
relative viability (EKVX; first compound 0.000632 µM): 0.173
relative viability (EKVX; first compound 0.002 µM): 0.14
relative viability (EKVX; first compound 0.006325 µM): 0.141
relative viability (EKVX; first compound 0.02 µM): 0.119
relative viability (CAL-12T; first compound 0.0002 µM): 0.757
relative viability (CAL-12T; first compound 0.000632 µM): 0.496
relative viability (CAL-12T; first compound 0.002 µM): 0.277
relative viability (CAL-12T; first compound 0.006325 µM): 0.25
relative viability (PC-14; first compound 0.0002 µM): 0.272
relative viability (PC-14; first compound 0.000632 µM): 0.417
relative viability (PC-14; first compound 0.002 µM): 0.235
relative viability (PC-14; first compound 0.006325 µM): 0.0958
relative viability (PC-14; first compound 0.02 µM): 0.0629
relative viability (NCI-H1755; first compound 0.0002 µM): 0.99
relative viability (NCI-H1755; first compound 0.000632 µM): 0.756
relative viability (NCI-H1755; first compound 0.002 µM): 0.495
relative viability (NCI-H1755; first compound 0.006325 µM): 0.448
relative viability (NCI-H1755; first compound 0.02 µM): 0.258
relative viability (NCI-H1563; first compound 0.0002 µM): 0.969
relative viability (NCI-H1563; first compound 0.000632 µM): 1.01
relative viability (NCI-H1563; first compound 0.002 µM): 0.971
relative viability (NCI-H1563; first compound 0.006325 µM): 0.747
relative viability (NCI-H1563; first compound 0.02 µM): 0.581
relative viability (NCI-H661; first compound 0.0002 µM): 0.495
relative viability (NCI-H661; first compound 0.000632 µM): 0.516
relative viability (NCI-H661; first compound 0.002 µM): 0.4
relative viability (NCI-H661; first compound 0.006325 µM): 0.369
relative viability (NCI-H661; first compound 0.02 µM): 0.245
